In brackets after ≈: the same amount, converted by molar mass.
Experiments:
Assay type in all cases: functional
Pseudomonas aeruginosa [1] = test: Antibacterial activity against Pseudomonas aeruginosa ATCC 27853 assessed as bacterial growth inhibition measured after 18 hrs by CLSI protocol based two-fold serial microdilution method
Enterococcus faecium [2] = test: Antibacterial activity against Enterococcus faecium assessed as reduction in bacterial growth
Staphylococcus aureus [3] = test: Antibiofilm activity against Staphylococcus aureus ATCC 25923 assessed as inhibition of biofilm formation incubated for 24 hrs by crystal violet staining based analysis
Neisseria gonorrhoeae [4] = test: Antibacterial activity against Neisseria gonorrhoeae
Enterococcus faecalis [5] = test: Antimicrobial activity against Enterococcus faecalis ATCC 29212 assessed as reduction in microbial growth incubated for 16 to 20 hrs by CLSI-protocol based Mueller-Hinton broth assay; details: time 16-20 hrs
Pseudomonas aeruginosa [6] = test: Antibacterial activity against Pseudomonas aeruginosa ATCC 27853 assessed as reduction in bacterial growth by broth microdilution method
Klebsiella pneumoniae [7] = test: Antibacterial activity against Klebsiella pneumoniae ATCC 700603 assessed as reduction in bacterial growth by microbroth dilution assay
Helicobacter pylori [8] = test: Antibacterial activity against Helicobacter pylori assessed as inhibition of bacterial growth by broth micro-dilution assay
Staphylococcus aureus [9] = test: Antimicrobial activity against methicillin-resistant Staphylococcus aureus ATCC 29213 assessed as reduction in microbial growth by CLSI brith micro-dilution method
Staphylococcus aureus [10] = test: Antibacterial activity against vancomycin-resistant Staphylococcus aureus VRS 1 assessed as reduction in bacterial growth
Neisseria gonorrhoeae [11] = test: Antibacterial activity against Neisseria gonorrhoeae ATCC 49226 assessed as reduction in bacterial growth incubated for 20 to 24 hrs by CLSI-based protocol based two-fold serial microdilution method; details: time 20-24 hrs
Klebsiella pneumoniae [12] = test: Antibacterial activity against Klebsiella pneumoniae ATCC 10031 assessed as reduction in microbial growth after 24 hrs by two-fold serial dilution method
Staphylococcus aureus [13] = test: Antibacterial activity against Staphylococcus aureus ATCC 25923 assessed as reduction in microbial growth after 24 hrs by two-fold serial dilution method
Staphylococcus aureus [14] = test: Antimicrobial activity against methicillin-sensitive Staphylococcus aureus ATCC 29213 assessed as reduction in bacterial growth by CLSI protocol based analysis
Staphylococcus aureus [15] = test: Antimicrobial activity against […] Staphylococcus aureus ATCC 25923 assessed as reduction in microbial growth by CLSI protocol based analysis
Neisseria gonorrhoeae [16] = test: Antibacterial activity against resistant Neisseria gonorrhoeae assessed inhibition of bacterial growth
Staphylococcus aureus [17] = test: Antibacterial activity against methicillin-resistant Staphylococcus aureus ATCC 43300 assessed as reduction in bacterial growth by CLSI protocol based broth micro-dilution method
Acinetobacter baumannii = test: Antibacterial activity against Acinetobacter baumannii BAA-1605 assessed as reduction in bacterial growth
Enterococcus faecalis [18] = test: Antibacterial activity against […] Enterococcus faecalis ATCC 29212 assessed as reduction in bacterial growth by CLSI protocol based two-fold serial broth microdilution method
Enterococcus faecium [19] = test: Antibacterial activity against vancomycin-resistant Enterococcus faecium assessed as reduction in bacterial growth CLSI-based double dilution method
Staphylococcus aureus [20] = test: Antibacterial activity against methicillin-resistant Staphylococcus aureus ATCC 43300 assessed as reduction in bacterial growth by CLSI protocol based two-fold serial broth microdilution method
Helicobacter pylori [21] = test: Antibacterial activity against Helicobacter pylori ATCC 700392 assessed as reduction in bacterial growth incubated for 24 hrs by broth micro-dilution method
Staphylococcus aureus [22] = test: Antibacterial activity against Staphylococcus aureus RN4220 assessed as inhibition of microbial growth
Helicobacter pylori [23] = test: Antibacterial activity against Helicobacter pylori ATCC 43504 assessed as reduction in bacterial growth incubated for 24 hrs by broth micro-dilution method
Pseudomonas aeruginosa [24] = test: Antibacterial activity against Pseudomonas aeruginosa PAO1 assessed as bacterial growth inhibition measured after 18 hrs by CLSI protocol based two-fold serial microdilution method
Staphylococcus aureus [25] = test: Antimicrobial activity against Staphylococcus aureus ATCC 25923 assessed as reduction in microbial growth after 24 hrs by CLSI based broth microdilution method
Pseudomonas aeruginosa [26] = test: Antibacterial activity against Pseudomonas aeruginosa assessed as inhibition of bacterial growth incubated for 24 hrs by broth microdilution method
Enterococcus faecium [27] = test: Antibacterial activity against Enterococcus faecium

## CN[C@@H]1[C@@H](O[C@H]2O[C@H](CO)[C@@H](N)[C@H](O)[C@H]2O)O[C@H]2C[C@@H](N)[C@@H](O[C@H]3[C@H](O)[C@@H](O)[C@H](N)C[C@@H]3N)O[C@@H]2[C@@H]1O
Pseudomonas aeruginosa [1]
  MIC: 32 µg/mL (≈ 59.3 µM)

## O=C(Nc1ccc(C(F)(F)F)cc1)Nc1ccc(C(F)(F)F)cc1
Enterococcus faecium [2]
  MIC: 1.6 µM (≈ 0.557 µg/mL)
Staphylococcus aureus [3]
  MBEC: 0.78 µmol/L

## CN(C)Cc1ccc2c(Cl)cc(Cl)c(O)c2n1
Neisseria gonorrhoeae [4]
  MIC: 0.31 µg/mL (≈ 1.14 µM)

## CC(C)Oc1ccc(/C=N/NC(=N)N/N=C/c2ccc(OC(C)C)cc2)cc1
Enterococcus faecalis [5]
  MIC: 1 µg/mL

## CC/C(=C(\c1ccc(O)cc1)c1ccc(OCCN(C)C)cc1)c1ccccc1 [AFIMOXIFENE]
Pseudomonas aeruginosa [6]
  MIC: 16 µg/mL (≈ 41.3 µM)

## Nc1c2ccccc2nc2ccccc12 [AMINACRINE]
Klebsiella pneumoniae [7]
  MIC: 8 µg/mL (≈ 41.2 µM)

## O=C(O)C(=O)CBr [BROMOPYRUVATE]
Helicobacter pylori [8]
  MIC: 32 µg/mL (≈ 192 µM)

## Cc1ccc(-c2cc(C(F)(F)F)nn2-c2ccc(S(N)(=O)=O)cc2)cc1 [CELECOXIB]
Staphylococcus aureus [9]
  MIC: 32 µg/mL
Staphylococcus aureus [10]
  MIC: 128 µg/mL (≈ 336 µM)

## Oc1c(Cl)cc(Cl)c2cccnc12 [CHLOROXINE]
Neisseria gonorrhoeae [11]
  MIC: 0.28 µM (≈ 0.0599 µg/mL)

## Cc1cc(C2CCCCC2)n(O)c(=O)c1 [CICLOPIROX]
Klebsiella pneumoniae [12]
  MIC: 5 µg/mL

## Oc1c(I)cc(Cl)c2cccnc12 [CLIOQUINOL]
Neisseria gonorrhoeae [11]
  MIC: 0.28 µM (≈ 0.0855 µg/mL)

## COc1cc(/C=C/C(=O)CC(=O)/C=C/c2ccc(O)c(OC)c2)ccc1O [CURCUMIN]
Staphylococcus aureus [13]
  MIC: 100 µg/mL

## CC1=NN(c2ccc(C)c(C)c2)C(=O)/C1=N\Nc1cccc(-c2cccc(C(=O)O)c2)c1O [ELTROMBOPAG]
Staphylococcus aureus [14]
  MIC: 2 µg/mL (≈ 4.52 µM)
Staphylococcus aureus [15]
  MIC: 2 µg/mL

## O=C(O)c1ccccc1Nc1cccc(C(F)(F)F)c1 [FLUFENAMIC ACID]
Neisseria gonorrhoeae [16]
  MIC50: 4 µg/mL (≈ 14.2 µM)

## CC[C@H](c1ccc(O)cc1)[C@@H](CC)c1ccc(O)cc1 [HEXESTROL]
Staphylococcus aureus [17]
  MIC: 16 µg/mL (≈ 59.2 µM)

## Oc1c(I)cc(I)c2cccnc12 [IODOQUINOL]
Neisseria gonorrhoeae [11]
  MIC: 0.1 µM (≈ 0.0397 µg/mL)

## CO[C@@]12[C@H](COC(N)=O)C3=C(C(=O)C(C)=C(N)C3=O)N1C[C@@H]1N[C@@H]12 [MITOMYCIN]
Acinetobacter baumannii
  MIC: 20 µg/mL (≈ 59.8 µM)

## CC/C(=C(\c1ccccc1)c1ccc(OCCNC)cc1)c1ccccc1 [N-DESMETHYLTAMOXIFEN]
Pseudomonas aeruginosa [6]
  MIC: 16 µg/mL (≈ 44.8 µM)

## O=C(Nc1ccc([N+](=O)[O-])cc1Cl)c1cc(Cl)ccc1O [NICLOSAMIDE]
Enterococcus faecalis [18]
  MIC: 0.125 µg/mL (≈ 0.382 µM)
Enterococcus faecium [19]
  MIC: 1 µg/mL (≈ 3.06 µM)
Staphylococcus aureus [20]
  MIC: 0.06 µg/mL (≈ 0.183 µM)

## COCCOC(=O)C1=C(C)NC(C)=C(C(=O)OC(C)C)C1c1cccc([N+](=O)[O-])c1 (stereo not given) [NIMODIPINE]
Helicobacter pylori [21]
  MIC: 4 µg/mL (≈ 9.56 µM)

## CCOC(=O)C1=C(C)NC(C)=C(C(=O)OC)C1c1cccc([N+](=O)[O-])c1 (stereo not given) [NITRENDIPINE]
Helicobacter pylori [21]
  MIC: 4 µg/mL (≈ 11.1 µM)

## O=C(Nc1cc(Cl)cc(Cl)c1O)c1c(O)c(Cl)cc(Cl)c1Cl [OXYCLOZANIDE]
Staphylococcus aureus [22]
  MIC: 0.125 µg/mL

## Oc1cccc2cccnc12 [OXYQUINOLINE]
Neisseria gonorrhoeae [11]
  MIC: 0.08 µM (≈ 0.0116 µg/mL)

## NC(=O)c1ccccc1O [SALICYLAMIDE]
Neisseria gonorrhoeae [16]
  MIC: 8 µg/mL (≈ 58.3 µM)

## CN[C@H]1CC[C@@H](c2ccc(Cl)c(Cl)c2)c2ccccc21 [SERTRALINE]
Helicobacter pylori [23]
  MIC: 32 µg/mL (≈ 104 µM)

## N[C@@H](CC(=O)N1CCn2c(nnc2C(F)(F)F)C1)Cc1cc(F)c(F)cc1F [SITAGLIPTIN]
Pseudomonas aeruginosa [24]
  MIC: 16 µg/mL (≈ 39.3 µM)

## CN(C)C(=S)SSC(=S)N(C)C [THIRAM]
Staphylococcus aureus [25]
  MIC90: 4 µg/mL

## NC[C@H]1O[C@H](O[C@H]2[C@H](O)[C@@H](O[C@H]3O[C@H](CO)[C@@H](O)[C@H](N)[C@H]3O)[C@H](N)C[C@@H]2N)[C@H](N)C[C@@H]1O [TOBRAMYCIN]
Pseudomonas aeruginosa [26]
  MIC90: 2.2 µg/mL (≈ 4.71 µM)

## Cc1c(Cl)cccc1Nc1ccccc1C(=O)O [TOLFENAMIC ACID]
Neisseria gonorrhoeae [16]
  MIC50: 4 µg/mL (≈ 15.3 µM)

## CN[C@H](CC(C)C)C(=O)N[C@H]1C(=O)N[C@@H](CC(N)=O)C(=O)N[C@H]2C(=O)N[C@H]3C(=O)N[C@H](C(=O)N[C@H](C(=O)O)c4cc(O)cc(O)c4-c4cc3ccc4O)[C@H](O)c3ccc(c(Cl)c3)Oc3cc2cc(c3O[C@@H]2O[C@H](CO)[C@@H](O)[C@H](O)[C@H]2O[C@H]2C[C@](C)(N)[C@H](O)[C@H](C)O2)Oc2ccc(cc2Cl)[C@H]1O [VANCOMYCIN]
Enterococcus faecium [27]
  MIC: 8 µg/mL (≈ 5.52 µM)
